Measurements from patent US20240279710A1, “FLUORESCENT PROBES” (TOHOKU TECHNO ARCH CO., LTD., priority 2021, published 2024).

Assays:
calpain = experiment: Rat NMDA injury model, ocular fundus imaging; assay type: in vivo; settings: for staining of nerve cells with HMRG in ocular fundus: probe 18.3 μM, 20 minutes after administration; for number of HMRG-positive cells in ocular fundus: FIG. 16
Protocol: Black Brown-Norway rats were each subjected to general anesthesia with isoflurane. PBS or N-methyl-D-aspartate (NMDA) (10 mM, 2 μL) was administered into an eye of the rat. 6 Hours after that, the rat was anesthetized with a mixed liquid of ketamine and xylazine again, and Compound 19 (18.3 μM, 3 μL) was administered into the eye. Images of an ocular fundus were taken with F-10 (a confocal biomicroscope manufactured by Nidek Co., Ltd.) before the administration of Compound 19 and 20 minutes after the administration.

SH-SY5Y cells = experiment: Live cell imaging of calpain activity in SH-SY5Y cells; assay type: cell-based; settings: 5 μM probe, 10 minutes incubation, FIG. 12
Protocol: Whether or not the improvement in enzymatic reactivity between the compound of the present invention and a calpain confirmed by the above-mentioned experiment remained the same even in a cell was verified. Calpain activity imaging in SH-SY5Y cells was performed on each of Compounds 16 and 19. Specifically, the SH-SY5Y cells (American Type Culture Collection, VA, USA) were cultured in a mixed medium of Dulbecco's modified eagle medium and Ham's F-12 medium (DMEM/F-12; Thermo Fisher Scientific, Inc.) (containing 10% fetal bovine serum (FBS; Thermo Fisher Scientific, Inc., MA, USA) and 100 U/mL penicillin-100 μg/mL streptomycin (PS; Thermo Fisher Scientific, Inc.)) under the conditions of 37° C. and 5% CO2-95% air. 6×10^4 to 8×10^4 Cells/well of the cells were seeded in a multiwell plate (μ-Plate 96 Well; ibidi, Grafelfing, Germany) coated with poly-D-lysine (Thermo Fisher Scientific, Inc.) and laminin (BD Biosciences, CA, USA), and were preincubated in a culture solution. Immediately after the removal of the culture solution in the wells, 200 μL of an assay solution (a culture solution containing a 5 μM probe) was added thereto, and the cells were incubated under the conditions of 37° C. and 5% CO2-95% air. 10 Minutes after that, a bright field image and a fluorescence image were taken with a confocal microscope (LSM 710, Carl Zeiss AG, Oberkochen, Germany).
Calpain activity imaging in SH-SY5Y cells was performed on each of Compounds 20 to 23, Compound 38, and Compound 56 in the same manner as in Example 9. In the case of each of Compounds 20 to 23 and Compound 38, a bright field image and a fluorescence image were taken after 30 minutes of incubation of the cells, and in the case of Compound 56, such images were taken after 20 minutes of incubation thereof.

[1] = target: T1, calpain-1 from human erythrocytes (Homo sapiens, UniProt P07384); experiment: Reactivity with calpain-1: absorption/fluorescence spectra and HPLC; assay type: biochemical; settings: 5 μM probe, calpain-1 100 units
T1 construct: calpain-1 from human erythrocytes; purchased Merck Millipore 208713; host or cells: human erythrocytes (natural source)
T1 sequence (P07384 1-714): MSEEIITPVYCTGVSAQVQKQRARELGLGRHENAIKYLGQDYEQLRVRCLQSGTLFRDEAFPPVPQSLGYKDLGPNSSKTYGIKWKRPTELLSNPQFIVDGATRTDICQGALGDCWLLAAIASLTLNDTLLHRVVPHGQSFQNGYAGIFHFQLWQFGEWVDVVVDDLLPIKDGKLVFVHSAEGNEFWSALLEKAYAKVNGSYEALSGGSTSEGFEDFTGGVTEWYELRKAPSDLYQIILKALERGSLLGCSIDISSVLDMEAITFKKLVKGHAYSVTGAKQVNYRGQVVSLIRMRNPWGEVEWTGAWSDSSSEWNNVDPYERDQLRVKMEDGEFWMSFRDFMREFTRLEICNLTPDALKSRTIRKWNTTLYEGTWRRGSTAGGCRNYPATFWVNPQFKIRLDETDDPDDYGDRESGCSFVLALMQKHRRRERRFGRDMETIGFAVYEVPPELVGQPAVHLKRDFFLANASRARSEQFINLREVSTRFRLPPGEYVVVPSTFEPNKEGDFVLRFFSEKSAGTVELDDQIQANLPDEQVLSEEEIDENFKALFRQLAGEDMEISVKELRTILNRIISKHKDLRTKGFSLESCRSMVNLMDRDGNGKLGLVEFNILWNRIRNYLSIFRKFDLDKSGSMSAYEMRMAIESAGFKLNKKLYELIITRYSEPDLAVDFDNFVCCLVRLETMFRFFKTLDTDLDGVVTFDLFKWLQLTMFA
T1 sequence (P04632 1-268 partner): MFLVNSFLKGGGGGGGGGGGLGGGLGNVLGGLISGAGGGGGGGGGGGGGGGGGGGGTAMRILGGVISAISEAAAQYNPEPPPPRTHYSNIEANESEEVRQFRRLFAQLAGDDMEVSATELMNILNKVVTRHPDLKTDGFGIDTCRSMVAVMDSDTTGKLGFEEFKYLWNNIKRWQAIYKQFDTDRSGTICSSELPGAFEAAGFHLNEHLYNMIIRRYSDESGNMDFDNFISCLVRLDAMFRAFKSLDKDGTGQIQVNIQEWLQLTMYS
Protocol: Calpain-1 was caused to act on Compound 19, and changes in absorption spectrum and fluorescence spectrum thereof were measured. Specifically, a solution (0.5 mM) of Compound 19 in DMSO and calpain-1 (100 units) (calpain-1 from human erythrocytes, Cat. No. 208713, Merck Millipore, the same holds true for the following) were added to a 50 mM TRIS buffer (pH: 7.4, 5 mM CaCl2, 100 mM NaCl, 1 mM EGTA) to produce 2 mL of a reaction solution (final probe concentration: 5 μM). An enzyme reaction was performed at 37° C. The fluorescence spectrum of the reaction solution was measured at an excitation wavelength of 490 nm. In addition, the reaction solution was analyzed by HPLC chromatography. Compound 19 to which calpain-1 was not added (final concentration: 5 μM) was used as a control.

COCC(=O)N[C@@H](CC(C)C)C(=O)N[C@@H](CCSC)C(=O)Nc1ccc2c(c1)Oc1cc(N)ccc1C21OCc2ccccc21 (some centres unmarked) [Compound 19]
staining of nerve cells with HMRG in ocular fundus (calpain; rats administered NMDA (10 mM, 2 μL), 3 μL into the eye 6 hours later): many of the nerve cells were clearly stained | number of HMRG-positive cells in ocular fundus (calpain; rats administered NMDA): significant increase | number of HMRG-positive cells in ocular fundus (calpain; rats administered PBS): extremely small | staining of nerve cells with HMRG in ocular fundus (calpain; rats administered PBS, 3 μL into the eye): substantially no nerve cells are stained | calpain activity imaging in SH-SY5Y cells (SH-SY5Y cells; confocal microscope): enabled the observation of calpain activity in the SH-SY5Y cells | clarity of live cell imaging compared to Compound 16 (SH-SY5Y cells): Clear imaging | changes in absorption spectrum and fluorescence spectrum by addition of calpain-1 ([1]; 50 mM TRIS pH 7.4, 5 mM CaCl2, 37° C., excitation 490 nm): increases in absorbance and fluorescence intensity | change in HPLC chromatogram by addition of calpain-1 (reaction product) ([1]; 37° C.): produced HMRG serving as a fluorescent substance
